Laboratory results from ChEMBL document CHEMBL5236587, “Discovery of oxazoline enhancers of cellular progranulin release” (Bioorg Med Chem Lett, 2023).
pEC50, pIC50: −log10 of the molar value.

What was measured:
[1] = Induction of progranulin secretion in mouse BV-2 cells; type: functional, cell-based
[2] = target: Voltage-gated inwardly rectifying potassium channel KCNH2 (Homo sapiens, UniProt Q12809); test: Inhibition of human ERG; type: toxicity
[3] = Metabolic stability in mouse hepatocytes assessed as half life measured upto 120 mins; type: ADME, cell-based, Hepatocyte
[4] = Metabolic stability in mouse hepatocytes assessed as intrinsic clearance; type: ADME, cell-based, Hepatocyte
[5] = Clearance in mouse at 10 mg/kg, po or 1 mg/kg, iv; type: ADME, organism-based; settings: in vivo
[6] = Volume of distribution at steady state in mouse at 10 mg/kg, po or 1 mg/kg, iv; type: ADME, organism-based; settings: in vivo
[7] = Metabolic stability in human hepatocytes assessed as half life measured upto 120 mins; type: ADME, cell-based, Hepatocyte
[8] = Half life in mouse at 10 mg/kg, po; type: ADME, organism-based; settings: in vivo
[9] = Efflux ratio of apparent permeability in MDCK-MDR1 cells; type: ADME, cell-based, Canis lupus familiaris; settings: dog
[10] = Protein binding in mouse brain assessed as unbound fraction; type: ADME, tissue-based
[11] = Bioavailability in mouse at 10 mg/kg, po or 1 mg/kg, iv; type: ADME, organism-based; settings: in vivo
[12] = Metabolic stability in human hepatocytes assessed as intrinsic clearance; type: ADME, cell-based, Hepatocyte
[13] = Half life in mouse at 1 mg/kg, iv; type: ADME, organism-based; settings: in vivo
[14] = Apparent permeability across apical to basolateral side in MDCK-MDR1 cells; type: ADME, cell-based, Canis lupus familiaris; settings: dog
[15] = Protein binding in human assessed as unbound fraction; type: ADME
[16] = Protein binding in mouse assessed as unbound fraction; type: ADME

Voltage-gated inwardly rectifying potassium channel KCNH2, sequence (Q12809 whole entry): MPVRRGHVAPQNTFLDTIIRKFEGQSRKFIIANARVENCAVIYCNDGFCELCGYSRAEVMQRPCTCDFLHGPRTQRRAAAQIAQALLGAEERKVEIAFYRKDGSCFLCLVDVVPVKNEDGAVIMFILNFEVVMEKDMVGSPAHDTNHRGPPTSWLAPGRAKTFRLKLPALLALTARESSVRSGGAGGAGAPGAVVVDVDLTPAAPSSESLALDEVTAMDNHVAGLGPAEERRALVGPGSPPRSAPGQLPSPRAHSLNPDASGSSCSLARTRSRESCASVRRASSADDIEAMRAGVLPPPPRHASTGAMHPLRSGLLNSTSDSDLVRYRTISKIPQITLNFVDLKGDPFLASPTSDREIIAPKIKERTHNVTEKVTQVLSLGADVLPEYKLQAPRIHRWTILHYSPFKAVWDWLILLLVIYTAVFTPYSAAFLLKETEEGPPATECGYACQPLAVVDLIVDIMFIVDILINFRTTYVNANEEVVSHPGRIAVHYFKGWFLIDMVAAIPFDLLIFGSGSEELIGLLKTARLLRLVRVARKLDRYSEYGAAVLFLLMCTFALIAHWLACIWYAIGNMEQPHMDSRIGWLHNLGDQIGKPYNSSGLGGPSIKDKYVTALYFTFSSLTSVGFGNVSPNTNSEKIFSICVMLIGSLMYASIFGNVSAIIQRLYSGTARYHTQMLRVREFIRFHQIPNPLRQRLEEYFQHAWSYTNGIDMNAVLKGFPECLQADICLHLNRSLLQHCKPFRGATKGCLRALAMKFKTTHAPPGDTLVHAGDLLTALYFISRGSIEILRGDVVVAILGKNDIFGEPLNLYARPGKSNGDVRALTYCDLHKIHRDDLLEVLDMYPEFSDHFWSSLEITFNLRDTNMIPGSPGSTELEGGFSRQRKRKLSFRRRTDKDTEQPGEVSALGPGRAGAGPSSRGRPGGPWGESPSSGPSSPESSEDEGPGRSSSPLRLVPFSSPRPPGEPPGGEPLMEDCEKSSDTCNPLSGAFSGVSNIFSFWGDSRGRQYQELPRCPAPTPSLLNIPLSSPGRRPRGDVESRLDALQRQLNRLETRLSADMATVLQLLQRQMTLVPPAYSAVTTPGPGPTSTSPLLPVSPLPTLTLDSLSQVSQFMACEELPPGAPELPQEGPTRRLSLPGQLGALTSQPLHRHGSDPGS

| Compound | pEC50 [1] | pIC50 [2] | also measured |
| --- | --- | --- | --- |
| Fc1ccc([C@H]2c3ccccc3CCN2C2=NC[C@@H]3NCC[C@@H]3O2)cc1 | 6.34 |  |  |
| CN1CC[C@@]2(CN=C(N3CCc4ccccc4[C@@H]3c3ccc(F)cc3)O2)C1 | 6.75 | 5.77 |  |
| OCCCN1CC[C@@]2(CN=C(N3CCc4ccccc4[C@@H]3c3ccc(F)cc3)O2)C1 | 6.74 | 5.32 |  |
| Fc1ccc([C@H]2c3ccccc3CCN2C2=NC[C@@H]3CNCC[C@H]3O2)cc1 | 7.46 | 5.51 |  |
| Fc1ccc([C@H]2c3ccccc3CCN2C2=NC[C@H](C3(F)CNC3)O2)cc1 | 6.72 | 4.96 |  |
| N[C@H]1CC[C@]2(COC(N3CCc4ccccc4[C@@H]3c3ccc(F)cc3)=N2)C1 | 6.80 |  |  |
| NC[C@H]1C[C@]2(CN=C(N3CCc4ccccc4[C@@H]3c3ccc(F)cc3)O2)C1 | 6.69 |  |  |
| Fc1ccc([C@H]2c3ccccc3CCN2C2=NC[C@@]3(CCNC3)O2)cc1 | 7.42 | 5.32 | half-life [3]: > 2 h; CLH [4]: < 68.2 µL/min/mg; CL [5]: 2.99 L/h/kg; Vdss [6]: 57.2 L/kg; half-life [7]: > 2 h; half-life [8]: 11.9 h; efflux ratio [9]: 3.09; fraction unbound [10]: 0.041; bioavailability [11]: 74%; CLH [12]: < 14.7 µL/min/mg; half-life [13]: 15.6 h; Papp A→B [14]: 30 nm/s |
| Fc1ccc([C@H]2c3ccccc3CCN2C2=NC[C@H]3NCC[C@H]3O2)cc1 | 6.37 |  |  |
| CN(C)[C@H]1C[C@]2(CN=C(N3CCc4ccccc4[C@@H]3c3ccc(F)cc3)O2)C1 | 5.45 |  |  |
| CN1CC[C@]2(CN=C(N3CCc4ccccc4[C@@H]3c3ccc(F)cc3)O2)C1 | 7.16 | 6.29 |  |
| N[C@@H]1CC[C@]2(CN=C(N3CCc4ccccc4[C@@H]3c3ccc(F)cc3)O2)C1 | 6.63 |  |  |
| N[C@H]1C[C@@]2(COC(N3CCc4ccccc4[C@@H]3c3ccc(F)cc3)=N2)C1 | 6.19 |  |  |
| OCCN1CC[C@@H]2OC(N3CCc4ccccc4[C@@H]3c3ccc(F)cc3)=NC[C@@H]2C1 | 7.43 |  |  |
| N[C@@H]1CC[C@@]2(CN=C(N3CCc4ccccc4[C@@H]3c3ccc(F)cc3)O2)C1 | 6.92 | 5.06 |  |
| Fc1ccc([C@H]2c3ccccc3CCN2C2=NC[C@H]([C@H]3CCNC3)O2)cc1 | 7.07 | 5.64 |  |
| Fc1ccc([C@H]2c3ccccc3CCN2C2=NC[C@]3(CCNC3)O2)cc1 | 7.68 |  |  |
| OCCN1CC[C@H]2OC(N3CCc4ccccc4[C@@H]3c3ccc(F)cc3)=NC[C@H]2C1 | 6.64 |  |  |
| Fc1ccc([C@H]2c3ccccc3CCN2C2=NC[C@H]([C@@H]3CCNC3)O2)cc1 | 6.68 | 5.17 |  |
| Fc1ccc([C@H]2c3ccccc3CCN2C2=N[C@@]3(CCCNC3)CO2)cc1 | 7.42 |  |  |
| Fc1ccc([C@H]2c3ccccc3CCN2C2=NC[C@H]3CNCC[C@@H]3O2)cc1 | 5.81 |  |  |
| N[C@H]1CC[C@@]2(COC(N3CCc4ccccc4[C@@H]3c3ccc(F)cc3)=N2)C1 | 6.69 |  |  |
| Fc1ccc([C@H]2c3ccccc3CCN2C2=NC[C@H](C3CN4CCC3(F)CC4)O2)cc1 (some centres not stated) | < 5.00 |  |  |
| Fc1ccc([C@H]2c3ccccc3CCN2C2=NC[C@H](C3CN4CCC3CC4)O2)cc1 (some centres not stated) | 6.41 | 6.17 |  |
| Fc1ccc([C@H]2c3ccccc3CCN2C2=NC[C@@]3(CCCNC3)O2)cc1 | 6.30 |  |  |
| Fc1ccc([C@H]2c3ccccc3CCN2C2=NC[C@H]3CNC[C@H]3O2)cc1 | 6.95 | 5.29 |  |
| Fc1ccc([C@H]2c3ccccc3CCN2C2=NCC3(CCNCC3)O2)cc1 | 7.23 |  |  |

| Compound | pEC50 [1] | pIC50 [2] | also measured |
| --- | --- | --- | --- |
| Fc1ccc([C@H]2c3ccccc3CCN2C2=NC[C@@H]3CNC[C@@H]3O2)cc1 | 6.02 |  |  |
| N[C@H]1C[C@@]2(CN=C(N3CCc4ccccc4[C@@H]3c3ccc(F)cc3)O2)C1 | 6.28 |  |  |
| N[C@H]1CC[C@@]2(CN=C(N3CCc4ccccc4[C@@H]3c3ccc(F)cc3)O2)C1 | 6.90 |  |  |
| CN(C)[C@H]1CC[C@@]2(CN=C(N3CCc4ccccc4[C@@H]3c3ccc(F)cc3)O2)C1 | 6.63 | 5.44 |  |
| CN(C)[C@H]1CC[C@]2(CN=C(N3CCc4ccccc4[C@@H]3c3ccc(F)cc3)O2)C1 | 6.86 | 5.11 |  |
| Fc1ccc([C@H]2c3ccccc3CCN2C2=NC[C@@H](C3CNC3)O2)cc1 | 7.01 | 5.21 |  |
| CN1CCCC2(COC(N3CCc4ccccc4[C@@H]3c3ccc(F)cc3)=N2)C1 (some centres not stated) | 6.10 |  |  |
| Fc1ccc([C@H]2c3ccccc3CCN2C2=NC[C@H]3CNCC[C@H]3O2)cc1 | 6.47 |  |  |
| NC[C@H]1C[C@@]2(CN=C(N3CCc4ccccc4[C@@H]3c3ccc(F)cc3)O2)C1 | 6.00 |  |  |
| Fc1ccc([C@H]2c3ccccc3CCN2C2=NC[C@@H](C3CN4CCC3(F)CC4)O2)cc1 (some centres not stated) | 6.42 |  |  |
| Fc1ccc([C@H]2c3ccccc3CCN2C2=N[C@@H](C3(F)CNC3)CO2)cc1 | 6.92 | 5.00 |  |
| Fc1ccc([C@H]2c3ccccc3CCN2C2=N[C@H]3CNC[C@H]3O2)cc1 | 6.29 |  |  |
| Fc1ccc([C@H]2c3ccccc3CCN2C2=NC[C@@H]3NCC[C@H]3O2)cc1 | 6.18 |  |  |
| Fc1ccc([C@H]2c3ccccc3CCN2C2=NC[C@]3(CCCNC3)O2)cc1 | 7.19 |  |  |
| Fc1ccc([C@H]2c3ccccc3CCN2C2=N[C@H](C3CN4CCC3CC4)CO2)cc1 (some centres not stated) | 6.90 |  |  |
| Fc1ccc([C@H]2c3ccccc3CCN2C2=N[C@@H]3CNC[C@@H]3O2)cc1 | 6.17 |  |  |
| CN1CCC2(CC1)COC(N1CCc3ccccc3[C@@H]1c1ccc(F)cc1)=N2 | 5.15 |  |  |
| Fc1ccc([C@H]2c3ccccc3CCN2C2=N[C@]3(CCCNC3)CO2)cc1 | 7.07 |  |  |
| Fc1ccc([C@H]2c3ccccc3CCN2C2=NC[C@@H]([C@H]3CCNC3)O2)cc1 | 6.61 | 5.41 |  |
| N[C@H]1CC[C@]2(CN=C(N3CCc4ccccc4[C@@H]3c3ccc(F)cc3)O2)C1 | 6.96 |  |  |
| Fc1ccc([C@H]2c3ccccc3CCN2C2=NC[C@H](C3CNC3)O2)cc1 | 6.96 | 5.66 |  |
| Fc1ccc([C@H]2c3ccccc3CCN2C2=N[C@H]3CNC[C@H]3CO2)cc1 | 6.56 | 5.48 |  |
| Fc1ccc([C@H]2c3ccccc3CCN2C2=NC[C@@H]([C@@H]3CCNC3)O2)cc1 | 7.26 | 5.27 |  |
| Fc1ccc([C@H]2c3ccccc3CCN2C2=NC3(CCNCC3)CO2)cc1 | 6.80 |  |  |
| Fc1ccc([C@H]2c3ccccc3CCN2C2=NC[C@@H]3CNCC[C@@H]3O2)cc1 | 7.24 | 4.68 | fraction unbound [15]: 0.375; efflux ratio [9]: 9.04; fraction unbound [10]: 0.009; fraction unbound [16]: 0.253; Papp A→B [14]: 14 nm/s |
| Fc1ccc([C@H]2c3ccccc3CCN2C2=N[C@@H](C3CN4CCC3CC4)CO2)cc1 (some centres not stated) | 6.64 |  |  |
| CN(C)[C@H]1C[C@@]2(CN=C(N3CCc4ccccc4[C@@H]3c3ccc(F)cc3)O2)C1 | 6.68 | 5.15 |  |
